# Laboratory results as given in PubChem BioAssay AID328 (DTP/NCI, 2004).
# Several values for one entry are separate records, joined by “and”; a condition that tells them apart may be missing. Equal values may be shown once. Toxic doses and inconclusive results are not listed.
# Test system: BDF1 mice, P388 leukemia ip, median survival T/C
# Assay: NCI In Vivo Anticancer Drug Screen. Data for tumor model P388 Leukemia (intraperitoneal) in B6D2F1 (BDF1) mice
# Details: endpoint: median survival time, higher = longer survival
# In short: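 Vehicle-dosed animals serve as the reference; survival of compound-dosed, tumour-implanted mice is divided by it.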
# [1] = dose: 100.0 mg/kg/injection, schedule: Q04DX003 (ip), vehicle: saline with Tween-80
# [2] = dose: 100.0 mg/kg/injection, schedule: Q04DX003 (ip), vehicle: saline
# [3] = dose: 50.0 mg/kg/injection, schedule: Q01DX009 (ip), vehicle: saline with Tween-80
# [4] = dose: 100.0 mg/kg/injection, schedule: Q01DX009 (ip), vehicle: saline with Tween-80
# [5] = dose: 200.0 mg/kg/injection, schedule: Q01DX009 (ip), vehicle: saline with Tween-80
# [6] = dose: 50.0 mg/kg/injection, schedule: Q04DX003 (ip), vehicle: Klucel (hydroxypropylcellulose) (HPC)
# [7] = dose: 100.0 mg/kg/injection, schedule: Q01DX009 (ip), vehicle: Klucel (hydroxypropylcellulose) (HPC)
# [8] = dose: 200.0 mg/kg/injection, schedule: Q04DX003 (ip), vehicle: Klucel (hydroxypropylcellulose) (HPC)
# [9] = dose: 400.0 mg/kg/injection, schedule: Q01DX009 (ip), vehicle: saline with Tween-80
# [10] = dose: 12.5 mg/kg/injection, schedule: Q01DX009 (ip), vehicle: saline with Tween-80
# [11] = dose: 1.32 mg/kg/injection, schedule: Q01DX009 (ip), vehicle: saline with Tween-80
# [12] = dose: 2.0 mg/kg/injection, schedule: Q01DX009 (ip), vehicle: saline with Tween-80
# [13] = dose: 50.0 mg/kg/injection, schedule: Q01DX009 (ip), vehicle: Klucel (hydroxypropylcellulose) (HPC)
# [14] = dose: 100.0 mg/kg/injection, schedule: Q04DX003 (ip), vehicle: Klucel (hydroxypropylcellulose) (HPC)
structure (smiles),measurement,setting,value
Nc1ncc(-c2ccc(CNc3ccc(C(=O)NC(CC(=O)O)CC(=O)O)cc3)cc2)c(N)n1,T/C,"dose: 2.0 mg/kg/injection, schedule: Q04DX003 (ip), vehicle: saline",113 % of control
same,T/C,"dose: 5.0 mg/kg/injection, schedule: Q04DX003 (ip), vehicle: saline",104 % of control
same,T/C,"dose: 10.0 mg/kg/injection, schedule: Q04DX003 (ip), vehicle: saline",104 % of control
same,T/C,"dose: 20.0 mg/kg/injection, schedule: Q04DX003 (ip), vehicle: saline",109 % of control
same,T/C,"dose: 30.0 mg/kg/injection, schedule: Q04DX003 (ip), vehicle: saline",118 % of control
same,T/C,"dose: 50.0 mg/kg/injection, schedule: Q04DX003 (ip), vehicle: saline with Tween-80",157 % of control
same,T/C,"dose: 50.0 mg/kg/injection, schedule: Q04DX003 (ip), vehicle: saline",177 % of control
same,T/C,[1],242 % of control
same,T/C,[2],213 % of control
Cc1ccc(C(=O)N(O)c2ccccc2)cc1,T/C,[3],98 % of control
same,T/C,[4],95 % of control
same,T/C,[5],104 % of control
CCCOP(=S)(N1CC1)N1CC1,T/C,"dose: 25.0 mg/kg/injection, schedule: Q01DX009 (ip), vehicle: other",100 % of control
same,T/C,[6],116 % of control
same,T/C,[7],100 % of control
same,T/C,"dose: 100.0 mg/kg/injection, schedule: Q01DX009 (ip), vehicle: other",150 % of control
same,T/C,[8],183 % of control
O=[P+](O)C(O)c1ccccc1 (stereo unspecified),T/C,[2],100 % of control
same,T/C,"dose: 200.0 mg/kg/injection, schedule: Q04DX003 (ip), vehicle: saline",108 % of control
same,T/C,"dose: 400.0 mg/kg/injection, schedule: Q04DX003 (ip), vehicle: saline",91 % of control
COc1ccc(C(=O)CC(C(=O)O)c2ccc3c(c2)OCO3)cc1OC (stereo unspecified),T/C,[4],109 % of control
same,T/C,[5],100 % of control
same,T/C,[9],104 % of control
CC(C)=CBr,T/C,"dose: 198.0 mg/kg/injection, schedule: Q01DX005 (ip), vehicle: saline",92 % of control
same,T/C,"dose: 300.0 mg/kg/injection, schedule: Q01DX005 (ip), vehicle: saline",100 % of control
O=CNc1ccc(/C=C\c2ccnc3ccccc23)cc1,T/C,"dose: 3.13 mg/kg/injection, schedule: Q01DX009 (ip), vehicle: saline with Tween-80",111 % of control
same,T/C,"dose: 6.25 mg/kg/injection, schedule: Q01DX009 (ip), vehicle: saline with Tween-80",106 % of control
same,T/C,[10],103 % of control
same,T/C,[3],94 % of control
same,T/C,[4],86 % of control
same,T/C,[5],91 % of control
c1ccc(OCCC[P+](c2ccccc2)(c2ccccc2)c2ccccc2)cc1,T/C,"dose: 0.78 mg/kg/injection, schedule: Q01DX010 (ip), vehicle: saline",90 % of control
same,T/C,"dose: 1.56 mg/kg/injection, schedule: Q01DX010 (ip), vehicle: saline",100 % of control
same,T/C,"dose: 3.13 mg/kg/injection, schedule: Q01DX010 (ip), vehicle: saline",109 % of control
same,T/C,"dose: 6.25 mg/kg/injection, schedule: Q01DX010 (ip), vehicle: saline",118 % of control
same,T/C,"dose: 12.5 mg/kg/injection, schedule: Q01DX010 (ip), vehicle: carboxymethylcellulose (CMC)",100 % of control
CCC[CH2][Sn]1([CH2]CCC)[O]OC(c2ccccc2)[O]1 (stereo unspecified),T/C,"dose: 0.5 mg/kg/injection, schedule: Q01DX009 (ip), vehicle: saline with Tween-80",109 % of control
same,T/C,"dose: 1.0 mg/kg/injection, schedule: Q01DX009 (ip), vehicle: saline with Tween-80",123 % of control
same,T/C,"dose: 1.25 mg/kg/injection, schedule: Q04DX003 (ip), vehicle: other",109 % of control
same,T/C,[11],115 % of control and 116 % of control
same,T/C,[12],110 % of control and 120 % of control
same,T/C,"dose: 2.5 mg/kg/injection, schedule: Q04DX003 (ip), vehicle: other",105 % of control and 113 % of control
same,T/C,"dose: 5.0 mg/kg/injection, schedule: Q04DX003 (ip), vehicle: other",118 % of control
same,T/C,"dose: 12.0 mg/kg/injection, schedule: Q01DX009 (ip), vehicle: saline with Tween-80",150 % of control
C(=Nc1ccc(/C=C\c2ccnc3ccccc23)cc1)Nc1ccc(/C=C\c2ccnc3ccccc23)cc1,T/C,[10],100 % of control
same,T/C,"dose: 25.0 mg/kg/injection, schedule: Q01DX009 (ip), vehicle: saline with Tween-80",107 % of control
same,T/C,[3],100 % of control
same,T/C,[5],97 % of control
CC1CN1c1cc(O)c(N2CC2C)cc1O (stereo unspecified),T/C,[11],154 % of control
same,T/C,[12],208 % of control
same,T/C,"dose: 2.2 mg/kg/injection, schedule: Q01DX009 (ip), vehicle: saline with Tween-80",200 % of control
same,T/C,"dose: 3.0 mg/kg/injection, schedule: Q01DX009 (ip), vehicle: saline with Tween-80",187 % of control
same,T/C,"dose: 3.3 mg/kg/injection, schedule: Q01DX009 (ip), vehicle: saline with Tween-80",265 % of control
same,T/C,"dose: 5.0 mg/kg/injection, schedule: Q01DX009 (ip), vehicle: saline with Tween-80",310 % of control and 204 % of control
same,T/C,"dose: 5.0 mg/kg/injection, schedule: Q04DX003 (ip), vehicle: saline with Tween-80",154 % of control
same,T/C,"dose: 7.5 mg/kg/injection, schedule: Q04DX003 (ip), vehicle: saline with Tween-80",231 % of control
same,T/C,"dose: 10.0 mg/kg/injection, schedule: Q01DX009 (ip), vehicle: saline with Tween-80",90 % of control
O=C1OC2CC=CCC2CC1O (stereo unspecified),T/C,"dose: 12.5 mg/kg/injection, schedule: Q01DX009 (ip), vehicle: saline",92 % of control
same,T/C,"dose: 25.0 mg/kg/injection, schedule: Q01DX009 (ip), vehicle: saline",96 % of control
same,T/C,"dose: 50.0 mg/kg/injection, schedule: Q01DX009 (ip), vehicle: saline",102 % of control
same,T/C,"dose: 100.0 mg/kg/injection, schedule: Q01DX009 (ip), vehicle: saline",102 % of control
O=C(NO)c1ccccc1,T/C,[13],105 % of control and 116 % of control
same,T/C,[6],103 % of control and 116 % of control
same,T/C,[7],91 % of control and 104 % of control and 105 % of control
same,T/C,[14],106 % of control and 108 % of control and 113 % of control
same,T/C,"dose: 200.0 mg/kg/injection, schedule: Q01DX009 (ip), vehicle: Klucel (hydroxypropylcellulose) (HPC)",107 % of control and 109 % of control
same,T/C,[8],104 % of control (2×) and 108 % of control
same,T/C,"dose: 400.0 mg/kg/injection, schedule: Q04DX003 (ip), vehicle: Klucel (hydroxypropylcellulose) (HPC)",100 % of control and 116 % of control
COC(=O)c1ccccc1NCCCC(=O)O,T/C,[1],91 % of control
same,T/C,"dose: 200.0 mg/kg/injection, schedule: Q04DX003 (ip), vehicle: saline with Tween-80",108 % of control
same,T/C,"dose: 400.0 mg/kg/injection, schedule: Q04DX003 (ip), vehicle: saline with Tween-80",100 % of control
COc1ccc(N=C2C(=O)Nc3ccc(Br)cc32)cc1,T/C,[3],100 % of control
same,T/C,[4],105 % of control
same,T/C,[5],104 % of control
same,T/C,[9],104 % of control
S=C(NNc1ccccc1)Nc1ccccc1,T/C,"dose: 25.0 mg/kg/injection, schedule: Q01DX009 (ip), vehicle: Klucel (hydroxypropylcellulose) (HPC)",106 % of control
same,T/C,[13],101 % of control
same,T/C,[7],96 % of control
O=C1CSc2cc[nH]c21,T/C,[6],90 % of control
same,T/C,[14],90 % of control
same,T/C,[8],104 % of control
c1ccc2c(c1)Cc1nc3ccccc3nc1-2,T/C,"dose: 3.12 mg/kg/injection, schedule: Q01DX009 (ip), vehicle: water",87 % of control
same,T/C,"dose: 6.25 mg/kg/injection, schedule: Q01DX009 (ip), vehicle: water",101 % of control and 110 % of control
same,T/C,"dose: 12.5 mg/kg/injection, schedule: Q01DX009 (ip), vehicle: water",87 % of control and 110 % of control
same,T/C,"dose: 25.0 mg/kg/injection, schedule: Q01DX009 (ip), vehicle: water",93 % of control and 106 % of control and 114 % of control
same,T/C,"dose: 25.0 mg/kg/injection, schedule: Q04DX003 (ip), vehicle: water",116 % of control
same,T/C,"dose: 50.0 mg/kg/injection, schedule: Q01DX009 (ip), vehicle: water",89 % of control and 95 % of control
same,T/C,"dose: 50.0 mg/kg/injection, schedule: Q04DX003 (ip), vehicle: water",102 % of control
same,T/C,"dose: 100.0 mg/kg/injection, schedule: Q01DX009 (ip), vehicle: water",87 % of control and 110 % of control
same,T/C,"dose: 100.0 mg/kg/injection, schedule: Q04DX003 (ip), vehicle: water",103 % of control
same,T/C,"dose: 200.0 mg/kg/injection, schedule: Q01DX009 (ip), vehicle: water",98 % of control
same,T/C,"dose: 200.0 mg/kg/injection, schedule: Q04DX003 (ip), vehicle: water",104 % of control
same,T/C,"dose: 400.0 mg/kg/injection, schedule: Q01DX009 (ip), vehicle: water",104 % of control
same,T/C,"dose: 400.0 mg/kg/injection, schedule: Q04DX003 (ip), vehicle: water",113 % of control
CCN(CC)CC(COC)Oc1cc(C)ccc1C(C)C (stereo unspecified),T/C,[3],100 % of control
same,T/C,[4],91 % of control
